From patent publication EP2756852A1, “Heparin-lipidic nanoparticle conjugates” (Centre de Recerca en Salut Internacional de Barcelona, priority 2013, dated 2014)
“Also recorded” adds a separate entry of the source.

Key:
[1] = test system: healthy cells; assay: Unspecific cytotoxicity assay (WST-1); format: cell-based; settings: DOTAP concentration up to 200 µM; 24 or 48 h at 37°C; WST-1, absorbance at 440 nm
Protocol: Cells were seeded in 96-well plates at a density of 5000 cells/100 µl/well, and incubated for 24 hours at 37°C in Medium 199 with Earle's Salts, supplemented with L-glutamine and FBS (PAA Laboratories GmbH). After that time the medium was carefully removed with a pipette and 90 µL of new medium (without FBS in this case) were added, followed by 10 µL of the sample to be analysed, which consisted of a solution of DOTAP 200 µM in PBS. It is advisable to prepare the sample dilutions in a 9:1 proportion (9 µl media:1 µl sample). After incubating for either 24 or 48 h at 37°C, 10 µL of WST-1 reagent were added, and after incubating for 1 h at 37°C absorbance at 440 nm was measured.

[2] = test system: P. falciparum 3D7 strain; assay: Plasmodium falciparum growth inhibition assay (parasitemia by blood smear counting or FACS); format: cell-based; settings: expressed with respect to non-treated pRBC, 48 h, liposomes 50 µM total lipid, primaquine 3 µM final in culture
Protocol: For culture maintenance, parasitemias were kept below 5% late forms by dilution with washed RBCs.
150 µL of this Plasmodium culture was plated in 96-well plates and incubated in the presence of liposomes for 48 h in the conditions described above.
Parasitemia was determined by microscopic counting of blood smears, or by fluorescence-assisted cell sorting (FACS). Smears were fixed in methanol for a few seconds and then stained for ten minutes with Giemsa (Merck Chemicals, Germany) diluted 1:10 in Sorenson's Buffer, pH 7.2. […] Samples were analyzed using an Epics XL flow cytometer (Coulter Corporation, Miami, Florida), set up with the standard configuration. Excitation of the sample was done using a standard 488 nm air-cooled argon-ion laser at 15 mW power. Forward scatter and side scatter were used to gate the RBC population. […] The single-cell population was selected on a forward-side scatter scattergram, and the fluorescence from this population was analyzed. Parasitemia was expressed as the number of parasitized cells per 100 erythrocytes.
Parasitemia was determined by microscopic counting of blood smears, or by fluorescence-assisted cell sorting (FACS).

Row | SMILES | cytotoxicity [1] | parasitemia ([2]; Example 1, FIG. 2) [%] | parasitemia ([2]; Example 2, FIG. 3) [%] | parasitemia ([2]; Example 3, FIG. 4) [%]
1 | CCCCCCCC/C=C\CCCCCCCC(=O)OCC(C[N+](C)(C)C)OC(=O)CCCCCCC/C=C\CCCCCCCC (stereo not shown) [DOTAP, 1,2-dioleoyl-3-trimethylammonium-propane] | not toxic; also recorded: not observed |  |  | 
2 | COc1cc(NC(C)CCCN)c2ncccc2c1 (stereo not shown) [PQ, primaquine] |  | 24.8 | 45.8 | 46.4
